Measured values reported in patent publication US7732609B2, “5-(arylsulfonyl)-pyrazolopiperidines” (Elan Pharmaceuticals, Inc., priority 2005, dated 2010).

Target: T1, gamma-secretase (Homo sapiens, UniProt P49768)
T1 construct: The assay used a partially purified extract of IMR-32 cell membranes as the gamma-secretase enzyme preparation; endogenous in cells; host or cells: IMR-32 cell membranes (partially purified extract)
Test: Gamma-secretase APP enzyme assay (MBP-C125 Swe cleavage at Aβ40 site, sandwich ELISA)
Format: biochemical
Settings: IMR-32 cell membrane extract as enzyme; MBP-C125swe substrate; 2 h at 37° C; read-out: γAPP
Description: The gamma-secretase APP enzyme assay was designed to measure the specific proteolytic cleavage of an APP substrate (MBP-C125 Swe fusion protein) at the Aβ40 site. The assay used a partially purified extract of IMR-32 cell membranes as the gamma-secretase enzyme preparation and a recombinant fusion protein containing the C-terminal 125 amino acids of the Swedish variant of the APP (MBP-C125swe) as the substrate. This assay involved two steps beginning with the enzymatic reaction generating a cleavage product that was captured with an immobilized antibody specific for the neo-epitope Aβ40 site. The captured cleavage product was then detected in a sandwich ELISA assay with a biotinylated reporter antibody that is specific to Aβ (17-28). Streptavidin-linked alkaline phosphatase was then added that would generate a fluorescent signal proportional to the amount of cleavage product. This assay was used to discover small molecule inhibitors of gamma-secretase.
Briefly, a 149 mg/ml solution of BIGCHAP detergent was made with water at 42° C. and then rotated for 30 minutes at the same temperature. This warmed solution of BigCHAPS(N,N-Bis(3-D-gluconamidopropyl)cholamide) detergent was used to dissolve Brain Extract Type-V (lipid containing a minimum of 40% phosphatidylethanolamine) from Sigma (St. Louis, Mo.) to a concentration of 8 mg/ml. This solution containing BigCHAPS and lipid at 8 mg/ml is then diluted to 0.53 mg/ml lipid with a pre-warmed solution of Hepes and sodium chloride. This final solution containing Hepes buffer, sodium chloride, BigCHAPS detergent and lipid is used to create working solutions of both gamma-secretase (25 Units) and the MBP-C125 substrate (0.05 mg/ml).
Gamma-secretase was then added to a 96-well micro-titre plate and then incubated with various concentrations of inhibitor for 30 minutes at 37° C. MBPC125 substrate was then added to initiate the reaction that would run for two hours at 37° C. The reaction was quenched with the addition of SDS to a final concentration of 0.1% and then 100 μl of the reaction mixture was transferred to a capture ELISA plate and incubated overnight at 4° C. Detection of the cleavage product was performed using a standard sandwich ELISA assay and quantified using a six point standard curve.

First: O=S(=O)(c1ccc(Cl)cc1)N1Cc2c[nH]nc2CC1c1nccs1 (stereo not shown) [2-(5-(4-chlorophenylsulfonyl)-4,5,6,7-tetrahydro-2H-pyrazolo[4,3-c]pyridin-6-yl)thiazole]
Second: O=S(=O)(c1ccc(Cl)cc1)N1Cc2c[nH]nc2CC1c1ccccc1 (stereo not shown) [5-(4-chlorophenylsulfonyl)-6-phenyl-4,5,6,7-tetrahydro-1H-pyrazolo[4,3-c]pyridine]
The IC50 of the first is higher: 0.15 to 0.3 µM for the first, under 0.05 µM for the second.

Compared with O=S(=O)(c1ccc(Cl)cc1)N1Cc2cccnc2CC1c1ccc(Cl)cc1 (stereo not shown) [7-(4-chlorophenyl)-6-(4-chlorophenylsulfonyl)-5,6,7,8-tetrahydro-1,6-naphthyridine], O=S(=O)(c1ccc(Cl)cc1)N1Cc2c[nH]nc2CC1c1cc(F)cc(F)c1 (stereo not shown) [5-(4-chlorophenylsulfonyl)-6-(3,5-difluorophenyl)-4,5,6,7-tetrahydro-1H-pyrazolo[4,3-c]pyridine] is lower in IC50: 0.15 to 0.3 µM for the first, under 0.05 µM for the second. The second is the more potent here.
